Laboratory results: patent publication US20230165980A1, “METHODS FOR RADIOLABELING PSMA BINDING LIGANDS AND THEIR KITS” (Novartis AG, priority 2020, published 2023)

Experiment: Radiochemical purity and radiochemical stability of ^68GaPSMA-11 by HPLC
Type: physicochemical
Protocol: Radiochemical Purity and Identification of ^68GaPSMA-11 by HPLC
Chromatographic Conditions
Radical Scavenger to be used for the improvement of the radiochemical stability of ^68Ga-PSMA-11, tests were performed according to a varied approach in order to consider all the parameters that may affect the radiochemical purity of the product (activity, pH, volume, amount of Gentisic Acid).
Stability tests were performed on the freeze dried product containing the final formulation. […] Kits manufactured with the final formulation, indeed, were stored at different stability conditions (2-8° C.; 25° C. and 40° C.) and were tested at different time points for API-assay, Radiochemical Purity and Radiochemical Stability of the radiolabelled product. Radiochemical Purity and Stability were assessed only eluting IRE Generator which represented the most stressful condition in terms of Radioactive Concentration (Volumic Activity).

[1] = t4 h, Gentisic Acid 0 μg, IRE 17.19 mCi, 1 mL, pH 5.24
[2] = t4 h, Gentisic Acid 200 μg, IRE 17.85 mCi, 1 mL, pH 5.22
[3] = t4 h, Gentisic Acid 200 μg, IRE 18.07 mCi, 1 mL, pH 5.25
[4] = t4 h, Gentisic Acid 200 μg, ITG 35.92 mCi, 4 mL, pH 4.83
[5] = t4 h, Gentisic Acid 400 μg, IRE 17.44 mCi, 1 mL, pH 5.13
[6] = t4 h, Gentisic Acid 400 μg, IRE 17.79 mCi, 1 mL, pH 5.11
[7] = t4 h, Gentisic Acid 400 μg, ITG 16.9 mCi, 4 mL, pH 4.85
[8] = t4 h, Gentisic Acid 400 μg, ITG 31.97 mCi, 4 mL, pH 4.81
[9] = t4 h, Gentisic Acid 1000 μg, E&Z 15.65 mCi, 5 mL, pH 3.75
[10] = t4 h, Gentisic Acid 1000 μg, IRE 17.1 mCi, 1 mL, pH 5.08
[11] = t4 h, Gentisic Acid 1000 μg, ITG 30.9 mCi, 4 mL, pH 4.87
[12] = t4 h, final formulation kit at Release, E&Z 15.65 mCi, 5 mL, pH 3.75
[13] = t4 h, final formulation kit at Release, E&Z 16.80 mCi, 5 mL, pH 3.75
[14] = t4 h, final formulation kit at Release, IRE 32.27 mCi, 1 mL, pH 4.95
[15] = t4 h, final formulation kit at Release, IRE 32.95 mCi, 1 mL, pH 5.07
[16] = t4 h, final formulation kit at Release, ITG 29.74 mCi, 4 mL, pH 4.67
[17] = t4 h, final formulation kit at Release, ITG 30.90 mCi, 4 mL, pH 4.67
[18] = t4 h, kit stored 3 months at 2-8° C., IRE 25.76 mCi, 1 mL, pH 5.29
[19] = t4 h, kit stored 3 months at 25° C., IRE 24.56 mCi, 1 mL, pH 5.16
[20] = t4 h, kit stored 3 months at 40° C., IRE 24.86 mCi, 1 mL, pH 5.23
[21] = t4 h, kit stored 6 months at 2-8° C., IRE 19.90 mCi, 1 mL, pH 5.13
[22] = t4 h, kit stored 6 months at 25° C., IRE 18.88 mCi, 1 mL, pH 5.09
[23] = t4 h, kit stored 6 months at 40° C., IRE 19.34 mCi, 1 mL, pH 5.15

## ^68Ga-PSMA-11 [[^68Ga] Gallium PSMA-11]
t0 h, kit stored 6 months at 40° C., IRE 19.34 mCi, 1 mL, pH 5.15
  [^68Ga] Gallium main degradant, HPLC: 0.42%
[1]
  [^68Ga] Gallium PSMA-11 (sum of stereosiomers), HPLC: 90.89%
  [^68Ga] Gallium free, HPLC: 0.14%
  [^68Ga] Gallium main degradant, HPLC: 7.32%
[2]
  [^68Ga] Gallium PSMA-11 (sum of stereosiomers), HPLC: 97.87%
  [^68Ga] Gallium free, HPLC: 0.00%
  [^68Ga] Gallium main degradant, HPLC: 1.80%
[3]
  [^68Ga] Gallium PSMA-11 (sum of stereosiomers), HPLC: 97.80%
  [^68Ga] Gallium free, HPLC: 0.00%
  [^68Ga] Gallium main degradant, HPLC: 1.74%
[4]
  [^68Ga] Gallium PSMA-11 (sum of stereosiomers), HPLC: 99.72%
  [^68Ga] Gallium free, HPLC: 0.00%
  [^68Ga] Gallium main degradant, HPLC: 0.00%
[5]
  [^68Ga] Gallium PSMA-11 (sum of stereosiomers), HPLC: 99.20%
  [^68Ga] Gallium free, HPLC: 0.00%
  [^68Ga] Gallium main degradant, HPLC: 0.68%
[6]
  [^68Ga] Gallium PSMA-11 (sum of stereosiomers), HPLC: 98.46%
  [^68Ga] Gallium free, HPLC: 0.00%
  [^68Ga] Gallium main degradant, HPLC: 1.54%
[7]
  [^68Ga] Gallium PSMA-11 (sum of stereosiomers), HPLC: 98.24%
  [^68Ga] Gallium free, HPLC: 0.00%
  [^68Ga] Gallium main degradant, HPLC: 0.00%
[8]
  [^68Ga] Gallium PSMA-11 (sum of stereosiomers), HPLC: 99.57%
  [^68Ga] Gallium free, HPLC: 0.00%
  [^68Ga] Gallium main degradant, HPLC: 0.00%
[9]
  [^68Ga] Gallium PSMA-11 (sum of stereosiomers), HPLC: 100.00%
  [^68Ga] Gallium free, HPLC: 0.00%
  [^68Ga] Gallium main degradant, HPLC: 0.00%
[10]
  [^68Ga] Gallium PSMA-11 (sum of stereosiomers), HPLC: 99.59%
  [^68Ga] Gallium free, HPLC: 0.00%
  [^68Ga] Gallium main degradant, HPLC: 0.41%
[11]
  [^68Ga] Gallium PSMA-11 (sum of stereosiomers), HPLC: 99.69%
  [^68Ga] Gallium free, HPLC: 0.00%
  [^68Ga] Gallium main degradant, HPLC: 0.06%
[12]
  [^68Ga] Gallium PSMA-11 (sum of stereosiomers), HPLC: 100.00%
  [^68Ga] Gallium free, HPLC: 0.00%
  [^68Ga] Gallium main degradant, HPLC: 0.00%
[13]
  [^68Ga] Gallium PSMA-11 (sum of stereosiomers), HPLC: 100.00%
  [^68Ga] Gallium free, HPLC: 0.00%
  [^68Ga] Gallium main degradant, HPLC: 0.00%
[14]
  [^68Ga] Gallium PSMA-11 (sum of stereosiomers), HPLC: 98.75%
  [^68Ga] Gallium free, HPLC: 0.00%
  [^68Ga] Gallium main degradant, HPLC: 0.54%
[15]
  [^68Ga] Gallium PSMA-11 (sum of stereosiomers), HPLC: 99.05%
  [^68Ga] Gallium free, HPLC: 0.03%
  [^68Ga] Gallium main degradant, HPLC: 0.42%
[16]
  [^68Ga] Gallium PSMA-11 (sum of stereosiomers), HPLC: 99.82%
  [^68Ga] Gallium free, HPLC: 0.00%
  [^68Ga] Gallium main degradant, HPLC: 0.00%
[17]
  [^68Ga] Gallium PSMA-11 (sum of stereosiomers), HPLC: 99.69%
  [^68Ga] Gallium free, HPLC: 0.00%
  [^68Ga] Gallium main degradant, HPLC: 0.06%
[18]
  [^68Ga] Gallium PSMA-11 (sum of stereosiomers), HPLC: 99.37%
  [^68Ga] Gallium free, HPLC: 0.00%
  [^68Ga] Gallium main degradant, HPLC: 0.49%
[19]
  [^68Ga] Gallium PSMA-11 (sum of stereosiomers), HPLC: 99.03%
  [^68Ga] Gallium free, HPLC: 0.00%
  [^68Ga] Gallium main degradant, HPLC: 0.38%
[20]
  [^68Ga] Gallium PSMA-11 (sum of stereosiomers), HPLC: 98.20%
  [^68Ga] Gallium free, HPLC: 0.00%
  [^68Ga] Gallium main degradant, HPLC: 0.37%
[21]
  [^68Ga] Gallium PSMA-11 (sum of stereosiomers), HPLC: 99.44%
  [^68Ga] Gallium free, HPLC: 0.00%
  [^68Ga] Gallium main degradant, HPLC: 0.44%
[22]
  [^68Ga] Gallium PSMA-11 (sum of stereosiomers), HPLC: 99.21%
  [^68Ga] Gallium free, HPLC: 0.00%
  [^68Ga] Gallium main degradant, HPLC: 0.33%
[23]
  [^68Ga] Gallium PSMA-11 (sum of stereosiomers), HPLC: 99.23%
  [^68Ga] Gallium free, HPLC: 0.00%
  [^68Ga] Gallium main degradant, HPLC: 0.46%
